Source: patent publication US12678412B2, “Substituted tolans for the modulation of microbial colonization” (BioMendics, LLC, priority 2017, dated 2026)

System: Candida albicans ATCC 64550
Assay: Colony forming assay, spread plate, Candida albicans
Format: cell-based
Details: Formulation C, compared to low dose, vehicle, Tobramycin and untreated control, 24 h, FIG. 8
Procedure: A fresh culture of pathogenic isolate was used in these examples. The bacterial strains used were Methicillin Resistant Staphylococcus aureus (MRSA USA 300), Pseudomonas aeruginosa ATCC 27312, and Candida albicans ATCC 64550.
FIG. 5 illustrates the spread plate method used in these examples. In sum, agar plates were made, bacteria were diluted to 10^6 or 10^8 CFU/mL, bacteria and drug were mixed together and then plated. Glass spreading beads were used because they give a better bacterial spread. Plates were incubated for 24 hrs then the colonies that formed were counted.
Proliferating cultures of Pseudomonas aeruginosa (PA, ATCC 27312) and Candida albicans (CA, ATCC 64550) were used in a colony forming assay. Freeze-dried bacteria cultures were recovered by swabbing a 3-cm diameter growth area and resuspending it to obtain a final inoculum suspension of approximately 10^6 CFU/mL. The concentration was confirmed using historical optical density measurements. […] Plates were photographed and counted. […]
Colony counts for each treatment were tabulated and the Log of the colony forming units/mL (Log CFU/mL) were determined. The mean and standard deviation of the Log CFU/mL were calculated for each treatment. […]

COc1ccc(C#Cc2ccc(O)cc2)cc1 [BM3103, 4-hydroxy-4′-methoxytolan]
Reduction of CA counts (high dose 0.5% w/v, 22 mM): about 4 fold | Reduction of CA counts (medium dose 0.25% w/v, 11 mM): about 4 fold
